From US7410975B2, “Small molecule toll-like receptor (TLR) antagonists” (Coley Pharmaceutical Group, Inc., priority 2003, dated 2008)

molecular target: T1, human TLR3 (hTLR3) (Homo sapiens, UniProt O15455); assay: Antagonist screen, hTLR3-NFκB-293 cells, NF-κB-luciferase reporter, with EC50 of poly(I:C); assay type: cell-based; settings: compound at 0.5, 5, 50 μg/ml; EC50 concentration of poly(I:C); 16 h; NF-κB-luciferase
T1 construct: expressed in transfected cells
T1 sequence (O15455 24-904): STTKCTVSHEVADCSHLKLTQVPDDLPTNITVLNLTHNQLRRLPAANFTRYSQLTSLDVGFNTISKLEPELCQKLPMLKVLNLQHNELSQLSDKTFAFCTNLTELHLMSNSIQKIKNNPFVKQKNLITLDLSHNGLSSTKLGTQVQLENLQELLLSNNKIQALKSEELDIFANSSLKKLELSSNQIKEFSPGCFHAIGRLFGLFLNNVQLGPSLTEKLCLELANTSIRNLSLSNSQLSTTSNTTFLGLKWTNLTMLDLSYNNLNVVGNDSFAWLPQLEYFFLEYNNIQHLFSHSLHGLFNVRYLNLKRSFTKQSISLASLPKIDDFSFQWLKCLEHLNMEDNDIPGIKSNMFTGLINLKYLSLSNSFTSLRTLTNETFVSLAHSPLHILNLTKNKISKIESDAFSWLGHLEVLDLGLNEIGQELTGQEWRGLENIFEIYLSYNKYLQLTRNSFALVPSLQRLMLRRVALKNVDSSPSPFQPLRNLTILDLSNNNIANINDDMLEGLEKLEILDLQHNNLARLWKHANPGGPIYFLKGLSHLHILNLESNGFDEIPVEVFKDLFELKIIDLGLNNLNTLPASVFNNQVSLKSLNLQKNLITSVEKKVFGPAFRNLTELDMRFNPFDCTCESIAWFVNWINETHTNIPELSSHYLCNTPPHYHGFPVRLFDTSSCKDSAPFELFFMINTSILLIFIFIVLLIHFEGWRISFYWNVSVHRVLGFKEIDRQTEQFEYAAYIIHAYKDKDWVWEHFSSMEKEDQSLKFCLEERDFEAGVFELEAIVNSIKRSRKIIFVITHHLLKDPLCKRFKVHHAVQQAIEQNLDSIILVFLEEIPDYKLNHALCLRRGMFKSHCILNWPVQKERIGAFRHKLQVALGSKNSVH
Method: The method is described in greater detail as follows. The cells for each individual cell clone (hTLR3-NFκB-293, hTLR7-NFκB-293, hTLR8-NFκB-293 and hTLR9-NFκB-293) were counted and seeded one day before the stimulation at 1.5×10^4 cells per well in 96-well cell culture plates. To become adherent the cells were incubated after seeding overnight at 37° C. in 5% CO2 humidified air.
The screen for each compound was performed at the same time for all of the receptors TLR3, TLR7, TLR8 and TLR9. Up to fifteen test compounds, each assayed in duplicate at each of three different final concentrations (0.5 μg/ml, 5 μg/ml, and 50 μg/ml), were used for 16 h cell stimulation on a single multiwell culture plate. A 4× final concentration master plate was created to prepare the different test compounds before they were added to the cells.
Controls were added as duplicates individually for each cell clone on the cell culture plate. Positive controls were used as follows (final concentrations): 50 μg/ml poly(I:C) for hTLR3-NFκB-293; 8 μM resiquimod (R848) for hTLR7-NFκB-293; 30 μM R848 for hTLR8-NFκB-293; and 2.5 μM CpG-ODN 2006 for hTLR9-NFκB-293. Media alone was used as negative control. After addition of controls and small molecules, the cell clones were additionally stimulated with the EC50 concentration of the appropriate receptor-specific ligand.
The mean value of wells H2 and H5 (each with cells and EC50 concentration of the appropriate receptor-specific ligand) divided by the mean of wells H3 and H6 (each with cells alone) yielded the baseline response (i.e., fold induction of luciferase activity) to EC50 concentration of the appropriate receptor-specific ligand.
After 16 h stimulation the supernatant was removed and the cells treated with lysis buffer and stored at −80° C. before measuring.
For each screen result a graphical documentation was performed.
The baseline result (measured with addition of the EC50 concentration of the receptor-specific ligand) for each cell culture plate was measured as described above. Antagonistic effects were measured by down regulation compared to the baseline. Antagonists were scored as follows: • 13: compounds for which there was clear down regulation at 0.5 μg/ml, 5 μg/ml, and 50 μg/ml; • 12: compounds for which there was clear down regulation at 5 μg/ml and 50 μg/ml; • 11: compounds for which there was clear down regulation only at 50 μg/ml; • —: compounds for which there was no clear down regulation even at 50 μg/ml. Agonists
Results were expressed as fold induction over baseline luciferase activity measured in the absence of poly(I:C). […] Additional screening was performed in like manner using additional small molecules selected from another library or specifically prepared for this purpose. Scoring is reported as above but as applied to TLR3.

Row | SMILES | hTLR3 (inhibitory effect, antagonist score)
1 | CC1NCCc2c1[nH]c1ccccc21.Cl (racemic) [compound 619, Eleagnine hydrochloride (R,S)] | — (compounds for which there was no clear down regulation even at 50 μg/ml)
2 | O=C1c2c(O)cccc2Cc2cccc(O)c21 [compound 43, Anthralin] | — (compounds for which there was no clear down regulation even at 50 μg/ml)
3 | CN(C)CCCN1c2ccccc2Sc2ccc(C(F)(F)F)cc21.Cl [compound 53, Triflupromazinehydrochloride] | 11 (compounds for which there was clear down regulation only at 50 μg/ml)
4 | CN(C)CCCN1c2ccccc2Sc2ccc(Cl)cc21.Cl [compound 64, Chlorpromazinehydrochloride] | 11 (compounds for which there was clear down regulation only at 50 μg/ml)
5 | CN(C)CCC=C1c2ccccc2CCc2ccccc21.Cl [compound 74, Amitryptilinehydrochloride] | — (compounds for which there was no clear down regulation even at 50 μg/ml)
6 | OC(c1ccccc1)(c1ccccc1)C1CCNCC1 [compound 93, Azacyclonol] | — (compounds for which there was no clear down regulation even at 50 μg/ml)
7 | CN1Cc2c(N)cccc2C(c2ccccc2)C1.O=C(O)/C=C\C(=O)O (centres unmarked) [compound 108, Nomifensine maleate] | — (compounds for which there was no clear down regulation even at 50 μg/ml)
8 | C[C@]12N[C@H](Cc3ccccc31)c1ccccc12.O=C(O)/C=C\C(=O)O [compound 109, Dizocilpine maleate] | — (compounds for which there was no clear down regulation even at 50 μg/ml)
9 | OCCN1CCN(CCCN2c3ccccc3Sc3ccc(Cl)cc32)CC1 [compound 125, Perphenazine] | — (compounds for which there was no clear down regulation even at 50 μg/ml)
10 | CN1CCN(CCCN2c3ccccc3Sc3ccc(S(=O)(=O)N(C)C)cc32)CC1.CS(=O)(=O)O.CS(=O)(=O)O [compound 149, Thioproperasinedimesylate] | — (compounds for which there was no clear down regulation even at 50 μg/ml)
11 | Clc1ccccc1C(c1ccccc1)(c1ccccc1)n1ccnc1 [compound 267, Clotrimazole] | — (compounds for which there was no clear down regulation even at 50 μg/ml)
12 | CC(NCCC(c1ccccc1)c1ccccc1)c1ccccc1.Cl (centres unmarked) [compound 270, Fendiline hydrochloride] | 11 (compounds for which there was clear down regulation only at 50 μg/ml)
13 | CN1CCC(=C2c3ccccc3Sc3ccccc32)CC1.O=C(O)/C=C\C(=O)O [compound 294, Pimethixene maleate] | 11 (compounds for which there was clear down regulation only at 50 μg/ml)
14 | O=c1[nH]c2ccccc2n1C1CCN(CCCC(c2ccc(F)cc2)c2ccc(F)cc2)CC1 [compound 308, Pimozide] | 12 (compounds for which there was clear down regulation at 5 μg/ml and 50 μg/ml)
15 | Cl.Cl.OCCN1CCN(CC/C=C2/c3ccccc3Sc3ccc(C(F)(F)F)cc32)CC1 [compound 340, Flupentixoldihydrochloride cis-(Z)] | 11 (compounds for which there was clear down regulation only at 50 μg/ml)
16 | CNCCCN1c2ccccc2CCc2ccccc21.Cl [compound 343, Desipraminehydrochloride] | 11 (compounds for which there was clear down regulation only at 50 μg/ml)
17 | CN(C)CC/C=C1/c2ccccc2Sc2ccc(Cl)cc21.Cl [compound 348, Chlorprothixenehydrochloride] | 11 (compounds for which there was clear down regulation only at 50 μg/ml)
18 | Cc1cccc(C)c1NC(=O)CN1CCN(CCCC(c2ccc(F)cc2)c2ccc(F)cc2)CC1 [compound 381, Lidoflazine] | 11 (compounds for which there was clear down regulation only at 50 μg/ml)
19 | Cl.Cl.Fc1ccc(C(OCCN2CCN(CCCc3ccccc3)CC2)c2ccc(F)cc2)cc1 [compound 386, GBR 12909hydrochloride] | 11 (compounds for which there was clear down regulation only at 50 μg/ml)
20 | Nc1cccc2c1C(=O)c1cccc(N)c1C2=O [compound 413, Anthraquinone,1,5-diamino] | 11 (compounds for which there was clear down regulation only at 50 μg/ml)
21 | CN1CCC2C(C1)c1ccccc1N2Cc1ccccc1 (centres unmarked) [compound 455, Mebhydroline 1,5 naphtalenedisulfonate] | — (compounds for which there was no clear down regulation even at 50 μg/ml)
22 | Cc1cccc(CN2CCN(C(c3ccccc3)c3ccc(Cl)cc3)CC2)c1.Cl.Cl (centres unmarked) [compound 457, Meclozinedihydrochioride] | — (compounds for which there was no clear down regulation even at 50 μg/ml)
23 | c1ccc2c(c1)[nH]c1cnccc12 [compound 470, norharman] | 11 (compounds for which there was clear down regulation only at 50 μg/ml)
24 | CN(C)CC/C=C1/c2ccccc2CSc2ccccc21.Cl [compound 488, Dosulepin hydrochloride] | 11 (compounds for which there was clear down regulation only at 50 μg/ml)
25 | CN1CCN(C(c2ccccc2)c2ccccc2)CC1.Cl [compound 510, Cyclizine hydrochloride] | — (compounds for which there was no clear down regulation even at 50 μg/ml)
26 | CN1CCCCC1CCN1c2ccccc2Sc2ccc([S+](C)[O-])cc21.O=S(=O)(O)c1ccccc1 (centres unmarked) [compound 529, Mesoridazine besylate] | — (compounds for which there was no clear down regulation even at 50 μg/ml)
27 | CCOC(=O)Oc1c(OC)cc(C(=O)O[C@@H]2C[C@@H]3CN4CCc5c([nH]c6cc(OC)ccc56)[C@H]4C[C@@H]3[C@H](C(=O)OC)[C@H]2OC)cc1OC [compound 564, Syrosingopine] | 13 (compounds for which there was clear down regulation at 0.5 μg/ml, 5 μg/ml, and 50 μg/ml)
28 | COC(=O)[C@H]1[C@H]2C[C@@H]3c4[nH]c5cc(OC)ccc5c4CCN3C[C@H]2C[C@@H](OC(=O)/C=C/c2cc(OC)c(OC)c(OC)c2)[C@@H]1OC [compound 568, Rescinnamin] | — (compounds for which there was no clear down regulation even at 50 μg/ml)
29 | CC(=O)c1ccc2c(c1)N(CCCN(C)C)c1ccccc1S2.O=C(O)/C=C\C(=O)O [compound 576, Acetopromazinemaleate salt] | 11 (compounds for which there was clear down regulation only at 50 μg/ml)
